Source: ChEMBL document CHEMBL3351419, “Orally bioavailable 6-chloro-7-methoxy-4(1H)-quinolones efficacious against multiple stages of Plasmodium” (J Med Chem, 2014)
In brackets after ≈: the same amount, converted by molar mass.

How the values were obtained:
Liver microsome [1] = assay: Intrinsic clearance in human liver microsomes at 1 uM by LC-MS analysis; format: ADME; details: microsomes, 1 µM
[2] = Resistance index, ratio of EC50 for multi-drug-resistant Plasmodium falciparum TM90-C2B infected in human type A+ erythrocytes to EC50 for multi-drug-resistant Plasmodium falciparum W2 infected in human type A+ erythrocytes; format: functional
Plasmodium berghei [3] = assay: Antimalarial activity against Plasmodium berghei ANKA expressing GFP infected in Balb/c mouse assessed as mouse survival at 50 mg/kg, po qd administered as single dose on day 3 to 5 of exposure measured on day 6 post exposure by in vivo thomson test relative to control; format: functional
J774 = assay: Cytotoxicity against mouse J774 cells after 72 hrs by CellTiter 96 assay; format: cell-based; details: J774, 72 h
Plasmodium berghei [4] = assay: Antimalarial activity against Plasmodium berghei ANKA expressing GFP infected in Balb/c mouse assessed as inhibition of parasitemia at 50 mg/kg, po qd administered as single dose on day 3 to 5 of exposure measured on day 6 post exposure by in vivo thomson test relative to control; format: functional
[5] = Cytotoxicity index, ratio of EC50 for mouse J774 cells to EC50 for multi-drug-resistant Plasmodium falciparum TM90-C2B infected in human type A+ erythrocytes; format: toxicity, cell-based; details: read-out: Ratio EC50
Plasmodium berghei [6] = assay: Antimalarial activity against Plasmodium berghei ANKA expressing GFP infected in Balb/c mouse assessed as mouse survival at 10 mg/kg, po qd administered as single dose on day 3 to 5 of exposure measured on day 6 post exposure by in vivo thomson test relative to control; format: functional
Plasmodium falciparum [7] = assay: Antimalarial activity against multi-drug-resistant Plasmodium falciparum W2 infected in human type A+ erythrocytes assessed as growth inhibition after 72 hrs by SYBR Green I assay; format: functional, organism-based; details: W2, 72 h
Plasmodium falciparum [8] = assay: Antimalarial activity against multi-drug-resistant Plasmodium falciparum TM90-C2B infected in human type A+ erythrocytes assessed as growth inhibition after 72 hrs by SYBR Green I assay; format: functional, organism-based
Plasmodium berghei [9] = assay: Antimalarial activity against Plasmodium berghei ANKA expressing GFP infected in Balb/c mouse assessed as inhibition of parasitemia at 10 mg/kg, po qd administered as single dose on day 3 to 5 of exposure measured on day 6 post exposure by in vivo thomson test relative to control; format: functional
Plasmodium berghei [10] = assay: animal or person; details: ANKA, in Mus musculus, read-out: INH
Plasmodium berghei [11] = assay: animal or person; details: ANKA, in Mus musculus, read-out: INH; remark: listed apart in the source
Plasmodium berghei [12] = assay: Antimalarial activity against Plasmodium berghei ANKA expressing GFP infected in Balb/c mouse assessed as mouse cured from disease at 10 mg/kg, po qd administered as single dose on day 3 to 5 of exposure measured on day 30 post exposure by in vivo thomson test relative to control; format: functional
Plasmodium berghei [13] = assay: Antimalarial activity against Plasmodium berghei ANKA expressing GFP infected in Balb/c mouse assessed as mouse cured from disease at 50 mg/kg, po qd administered as single dose on day 3 to 5 of exposure measured on day 30 post exposure by in vivo thomson test relative to control; format: functional
Liver microsome [14] = assay: Half life in human liver microsomes at 1 uM by LC-MS analysis; format: ADME
[15] = octanol/water, pH 7.4
[16] = Aqueous solubility of the compound at pH 7.4; format: physicochemical; details: buffer
Plasmodium berghei [17] = assay: Antimalarial activity against Plasmodium berghei ANKA expressing GFP infected in Balb/c mouse assessed as mouse cured from disease at 3 mg/kg, po qd administered as single dose on day 3 to 5 of exposure measured on day 30 post exposure by in vivo thomson test relative to control; format: functional
Plasmodium berghei [18] = assay: Antimalarial activity against Plasmodium berghei ANKA expressing GFP infected in Balb/c mouse assessed as mouse survival at 3 mg/kg, po qd administered as single dose on day 3 to 5 of exposure measured on day 6 post exposure by in vivo thomson test relative to control; format: functional
Plasmodium berghei [19] = assay: Antimalarial activity against Plasmodium berghei ANKA expressing GFP infected in Balb/c mouse assessed as inhibition of parasitemia at 3 mg/kg, po qd administered as single dose on day 3 to 5 of exposure measured on day 6 post exposure by in vivo thomson test relative to control; format: functional

Row | Structure (SMILES) | CLint_mic (Liver microsome [1]) [µL/min/mg] | Ratio EC50 [2] | mouse survival time at 50 mg/kg (Plasmodium berghei [3]) [days] | EC50 (J774) [nM] | inhibition in vivo at 50 mg/kg (Plasmodium berghei [4]) [%] | selectivity ratio [5] | survival time at 10 mg/kg (Plasmodium berghei [6]) [days] | EC50 (Plasmodium falciparum [7]) [nM] | EC50 (Plasmodium falciparum [8]) [nM] | inhibition in vivo at 10 mg/kg (Plasmodium berghei [9]) [%] | inhibition in vivo at 50 mg/kg (Plasmodium berghei [10]) [%] | inhibition in vivo at 50 mg/kg (Plasmodium berghei [11]) [%] | Activity (Plasmodium berghei [12]) [%] | Activity (Plasmodium berghei [13]) [%] | t1/2 (Liver microsome [14]) [h] | logD [15] | solubility kinetic [16] [µM] | Activity (Plasmodium berghei [17]) [%] | survival time at 3 mg/kg (Plasmodium berghei [18]) [days] | inhibition in vivo at 3 mg/kg (Plasmodium berghei [19]) [%]
1 | CCc1c(C)[nH]c2cc(OC)c(Cl)cc2c1=O | 56 | – | – | – | – | – | – | – | – | – | – | – | – | – | – | – | – | – | – | –
2 | COc1cc2[nH]c(C)c(-c3ccccc3)c(=O)c2cc1Cl | 17 | 0.59 | 0 | > 33400 | < 1 | > 2170 | – | – | – | – | – | – | – | – | – | – | – | – | – | –
3 | COc1cc2[nH]c(C)c(-c3ccccc3C)c(=O)c2cc1Cl | – | 0.69 | 0 | > 31900 | 41 | > 7910 | 0 | 5.83 | 4.03 | 17 | 9 | – | – | – | – | – | – | – | – | –
4 | COc1cc2[nH]c(C)c(-c3ccncc3)c(=O)c2cc1Cl | 15 | 1.71 | – | > 33300 | – | > 152 | – | 128 | 219 | – | – | – | – | – | – | – | – | – | – | –
5 | COc1cc2[nH]c(C)c(-c3ccc(N(C)C)nc3)c(=O)c2cc1Cl | – | 0.12 | 0 | > 29100 | 22 | > 319 | 0 | 748 | 91.1 | < 1 | – | – | – | – | – | – | – | – | – | –
6 | COc1cc2[nH]c(C)c(-c3ccc(N4CCN(C)CC4)nc3)c(=O)c2cc1Cl | – | 0.34 | – | > 25100 | – | > 46.8 | – | 1580 | 536 | – | 0 | 0 | – | – | – | – | – | – | – | –
7 | COc1cc2[nH]c(C)c(-c3ccco3)c(=O)c2cc1Cl | – | 0.25 | 0 | > 34500 | < 1 | > 4100 | 0 | 34.2 | 8.43 | < 1 | – | – | – | – | – | – | – | – | – | –
8 | COc1ccc(-c2c(C)[nH]c3cc(OC)c(Cl)cc3c2=O)cc1 | – | 0.21 | – | > 30300 | – | > 2690 | – | 54 | 11.3 | – | 53.6 | 26.9 | – | – | – | – | – | – | – | –
9 | COc1cc2[nH]c(C)c(-c3ccc(OC(C)C)cc3)c(=O)c2cc1Cl | – | 0.22 | – | > 27900 | – | > 2220 | – | 58.4 | 12.6 | – | 41.4 | 26.8 | – | – | – | – | – | – | – | –
10 | COc1cc2[nH]c(C)c(-c3ccc(CO)cc3)c(=O)c2cc1Cl | – | 0.61 | 0 | > 30300 | < 1 | > 323 | 0 | 154 | 93.9 | < 1 | – | – | – | – | – | – | – | – | – | –
11 | COc1cc2[nH]c(C)c(-c3ccc(-c4ccccc4)cc3)c(=O)c2cc1Cl | – | 2.43 | 0 | > 26600 | 79 | > 6140 | 0 | 1.78 | 4.33 | 80 | 85.7 | 61 | – | – | – | – | – | – | – | –
12 | COc1cc2[nH]c(C)c(-c3ccc(Oc4ccccc4)cc3)c(=O)c2cc1Cl | – | 0.55 | 4 | > 25500 | 70 | > 19500 | 4 | 2.4 | 1.31 | 87 | 83.9 | 69 | 0 | 0 | – | – | – | – | – | –
13 | COc1cc2[nH]c(C)c(-c3ccc(F)cc3)c(=O)c2cc1Cl | – | 1.72 | 1 | > 31500 | 30 | > 879 | 1 | 20.8 | 35.8 | 63 | – | – | 0 | 0 | – | – | – | – | – | –
14 | COc1cc2[nH]c(C)c(-c3ccc(F)cc3F)c(=O)c2cc1Cl | – | 1.7 | – | > 29800 | – | > 668 | – | 26.3 | 44.6 | – | 44.3 | 29.1 | – | – | – | – | – | – | – | –
15 | COc1cc2[nH]c(C)c(-c3ccc(C(F)(F)F)cc3)c(=O)c2cc1Cl | – | 0.96 | 4 | > 27200 | 97 | > 4550 | 3 | 6.25 | 5.98 | 92 | – | – | 0 | 0 | – | – | – | – | – | –
16 | COc1cc2[nH]c(C)c(-c3ccc(OC(F)(F)F)cc3)c(=O)c2cc1Cl | – | 1.01 | – | > 26100 | – | > 3360 | – | 7.72 | 7.76 | – | 60 | 28.8 | – | – | – | – | – | – | – | –
17 | COc1cc2[nH]c(C)c(-c3ccc(F)cc3C)c(=O)c2cc1Cl | – | 1.07 | – | 13600 | – | 1690 | – | 7.52 | 8.07 | – | – | – | – | – | 1.93 | 2.7 | < 2 | – | – | –
18 | COc1cc2[nH]c(C)c(-c3ccc(C(F)(F)F)cc3C)c(=O)c2cc1Cl | – | 0.29 | 0 | > 26200 | – | > 45300 | 6 | 2.02 | 0.578 | 80 | – | – | 0 | 0 | 3.93 | 2.7 | < 2 | 100 | 23 | 84
19 | COc1cc2[nH]c(C)c(-c3ccc(Oc4ccc(OC(F)(F)F)cc4)cc3C)c(=O)c2cc1Cl | – | 2.07 | – | > 20400 | 98 | > 31600 | 23 | 0.312 | 0.646 | 99 | – | – | 100 | – | – | 2.1 | < 2 | – | – | –
20 | COc1cc2[nH]c(C)c(-c3ccc(COc4ccc(OC(F)(F)F)cc4)cc3)c(=O)c2cc1Cl | – | 0.21 | – | > 20400 | – | > 12800 | – | 7.74 | 1.59 | – | – | – | – | – | 2.15 | 4.4 | – | – | – | –
21 | COc1cc2[nH]c(C)c(-c3ccc(OCc4ccccc4)c(F)c3)c(=O)c2cc1Cl | – | 0.15 | – | > 23600 | – | > 2180 | – | 73.4 | 10.8 | – | – | – | – | – | 0.383 | 3.8 | < 2 | – | – | –
22 | CCCSc1ccc2nc(NC(=O)OC)[nH]c2c1 [ALBENDAZOLE] | – | – | – | – | – | – | – | – | – | – | – | – | – | – | – | – | 6.1 (≈ 1.62 µg/mL) | – | – | –
23 | C[C@H]1[C@H](OC(=O)CCC(=O)O)O[C@@H]2O[C@@]3(C)CC[C@H]4[C@H](C)CC[C@@H]1[C@@]24OO3 [ARTESUNATE] | – | – | – | – | – | – | – | – | – | – | 97 | 81 | – | – | – | – | – | – | – | –
24 | O=C1C(O)=C([C@H]2CC[C@H](c3ccc(Cl)cc3)CC2)C(=O)c2ccccc21 [ATOVAQUONE] | – | – | – | – | – | – | – | – | 18400 | – | – | – | – | 0 | – | – | – | – | – | –
